Laboratory results: US20090163476A1, “N-Phenyl Benzamide Derivatives as Sirtuin Modulators” (Sirtris Pharmaceuticals, Inc., priority 2005, published 2009)

How the values were obtained:
human SIRT3 = target: T1, human SIRT3 (Homo sapiens, UniProt Q9NTG7); assay: Fluorescence polarization assay of SIRT3 activity (Histone H4-based peptide substrate); type: biochemical; details: inhibition of SIRT3 (Table 7)
T1 construct: The SIRT3 protein used in the assays corresponded to amino acid residues 102-399 of human SIRT3; His-tag (N); made in house; host or cells: E. coli
T1 sequence (Q9NTG7 102-399): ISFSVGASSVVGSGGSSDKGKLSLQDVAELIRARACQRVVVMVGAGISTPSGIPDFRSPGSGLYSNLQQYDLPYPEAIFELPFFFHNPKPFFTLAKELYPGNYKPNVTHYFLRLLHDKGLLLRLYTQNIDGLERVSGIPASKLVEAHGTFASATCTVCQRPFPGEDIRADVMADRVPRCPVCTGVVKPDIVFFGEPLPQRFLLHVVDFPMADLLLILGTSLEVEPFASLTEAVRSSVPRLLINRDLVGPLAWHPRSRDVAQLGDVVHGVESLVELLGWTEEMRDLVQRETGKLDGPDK
Description: A fluorescence polarization assay was used to identify modulators of SIRT3 activity. The same assay may be used to identify modulators of any sirtuin protein. The assay utilizes a peptide substrate based on a fragment of Histone H4, a known sirtuin deacetylation target. The substrate contains a peptide having 14 amino acid residues as follows: Biotin-GASSHSK(Ac)VLK(MR121) (SEQ ID NO: 3) wherein K(Ac) is an acetylated lysine residue. The peptide is labeled with the fluorophore MR121 (excitation 635 nm/emission 680 nm) at the C-terminus and biotin at the N-terminus.
The peptide substrate is exposed to a sirtuin protein in the presence of NAD^+ to allow deacetylation of the substrate and render it sensitive to cleavage by trypsin. Trypsin is then added and the reaction is carried to completion (i.e., the deacetylated substrate is cleaved) releasing the MR121 fragment. Streptavidin is then added to the reaction where it can bind both the uncleaved substrate (i.e., any remaining acetylated substrate) and the non-fluorescent portion of the cleaved peptide substrate (i.e., the biotin containing fragment). The fluorescence polarization signal observed for the full length peptide substrate bound to streptavidin is higher than the fluorescence polarization signal observed for the released MR121C-terminal fragment. Therefore, the fluorescence polarization obtained is inversely proportional to the level of deacetylation (e.g., the signal is inversely proportional to the activity of the sirtuin protein). Results are read on a microplate fluorescence polarization reader (Molecular Devices Spectramax MD) with appropriate excitation and emission filters.
The fluorescence polarization assays may be conducted as follows: 0.5 μM peptide substrate and 50 μM βNAD^+ is incubated with 2 nM of SIRT3 for 60 minutes at 37° C. in a reaction buffer (25 mM Tris-acetate pH8, 137 mM Na—Ac, 2.7 mM K—Ac, 1 mM Mg—Ac, 0.1% Pluronic F127, 10 mM CaCl2, 1 mM TCEP, 0.025% BSA). Test compounds are solubilized in DMSO and are added to the reaction at 11 concentrations ranging from 0.7 μM to 100 μM. The SIRT3 protein used in the assays corresponded to amino acid residues 102-399 of human SIRT3 with an N-terminal His-tag. […] Fluorescent polarization is determined at excitation (650 nm) and emissions (680 nm) wavelengths. The level of activity of the sirtuin protein in the presence of the various concentrations of test compound are then determined and may be compared to the level of activity of the sirtuin protein in the absence of the test compound, and/or the level of activity of the sirtuin proteins in the negative control (e.g., level of inhibition) and positive control (e.g., level of activation) described below. […]

SIRT1 = target: T2, SIRT1 (Homo sapiens, UniProt Q96EB6); assay: SIRT1 fluorescence polarization or mass spectrometry based assay (format not given); type: biochemical; details: inhibition of SIRT1 (Table 5)
T2 sequence (Q96EB6 1-747): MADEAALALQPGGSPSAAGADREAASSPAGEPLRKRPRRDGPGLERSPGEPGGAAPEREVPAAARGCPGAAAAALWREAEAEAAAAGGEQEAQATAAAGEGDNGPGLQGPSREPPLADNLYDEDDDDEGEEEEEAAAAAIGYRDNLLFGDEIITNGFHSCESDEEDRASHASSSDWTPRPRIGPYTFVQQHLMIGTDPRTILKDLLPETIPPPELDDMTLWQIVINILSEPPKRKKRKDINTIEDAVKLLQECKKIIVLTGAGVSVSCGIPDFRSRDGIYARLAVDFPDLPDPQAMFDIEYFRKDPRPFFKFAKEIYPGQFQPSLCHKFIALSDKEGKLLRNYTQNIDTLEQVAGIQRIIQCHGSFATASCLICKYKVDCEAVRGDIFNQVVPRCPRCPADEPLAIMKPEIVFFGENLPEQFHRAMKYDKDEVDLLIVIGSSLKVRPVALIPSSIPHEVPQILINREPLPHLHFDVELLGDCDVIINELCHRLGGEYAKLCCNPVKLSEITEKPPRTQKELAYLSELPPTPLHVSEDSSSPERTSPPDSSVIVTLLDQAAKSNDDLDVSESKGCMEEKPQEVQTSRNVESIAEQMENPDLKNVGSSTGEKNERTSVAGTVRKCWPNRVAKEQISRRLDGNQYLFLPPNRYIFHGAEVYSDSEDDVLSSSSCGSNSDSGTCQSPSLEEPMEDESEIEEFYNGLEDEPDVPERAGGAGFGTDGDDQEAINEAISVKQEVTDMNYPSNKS

**Q.** What does the source list for COc1ccccc1C(=O)Nc1cccc(/C=C/C(=O)N2CCCNCC2)c1 [Compound 15]?
**A.** IC50 (human SIRT3): 51 to 100 µM; IC50 (SIRT1): 101 to 150 µM

**Q.** How did the IC50 (human SIRT3) turn out when N#Cc1cccc(C(=O)Nc2ccc(-c3cc(C(N)=O)co3)cc2)c1 [Compound 16] was run?
**A.** The IC50 was 101 to 150 µM.

**Q.** How did the IC50 (human SIRT3) turn out when O=C(Nc1cccc(/C=C/C(=O)N2CCCNCC2)c1)c1ccc(F)c(C(F)(F)F)c1 [Compound 17] was run?
**A.** Its IC50 is 51 to 100 µM.

**Q.** How did the IC50 (human SIRT3) turn out when COc1ccc(C(=O)Nc2cccc(/C=C/C(=O)N3CCCNCC3)c2)cc1OC [Compound 18] was run?
**A.** Its IC50 is 51 to 100 µM.
